Measurements as given in patent publication US11591323B2, “Muscarinic agonists as non-steroidal and non-opioid analgesics and methods of use thereof” (Barry University, priority 2019, dated 2023).

Biological target: T1, M4 muscarinic receptor (Homo sapiens, UniProt P08173)
T1 sequence (P08173 1-479): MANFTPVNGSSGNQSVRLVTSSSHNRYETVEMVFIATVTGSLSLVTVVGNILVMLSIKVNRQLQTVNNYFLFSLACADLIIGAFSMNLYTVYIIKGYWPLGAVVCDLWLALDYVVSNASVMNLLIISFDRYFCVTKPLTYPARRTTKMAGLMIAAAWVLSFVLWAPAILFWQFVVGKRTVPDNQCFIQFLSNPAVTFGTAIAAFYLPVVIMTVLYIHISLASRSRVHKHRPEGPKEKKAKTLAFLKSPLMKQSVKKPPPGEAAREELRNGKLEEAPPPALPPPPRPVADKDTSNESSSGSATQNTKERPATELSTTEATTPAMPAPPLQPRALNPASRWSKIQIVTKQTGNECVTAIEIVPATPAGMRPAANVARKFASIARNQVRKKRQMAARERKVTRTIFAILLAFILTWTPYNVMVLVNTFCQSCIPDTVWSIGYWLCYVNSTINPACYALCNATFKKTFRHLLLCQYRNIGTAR
Experiment: accumulation of IPX, M4 CHO cells with promiscuous G15 G-protein (M4Gq+G15)
Assay type: cell-based
Set-up: expressed in transfected cells; pCMV/hygro vector, hygromycin selection
Conditions: for RAi / E′MAX / τ / Δlog(τ/KA): M4 Gq + G15 (↑IPX); for RAi: Table 8, relative to carbachol; for accumulation of IPX: M4 co-transfected with G15, in words; for E′MAX / τ: Table 8; for Δlog(τ/KA): Table 8, to carbachol
Protocol: Since activation of phospholipase C (PLC) via M2 and M4 receptors is weak, cells were transferred with G15 G-protein to facilitate coupling.
To determine level of cAMP, cells in suspension were pre-incubated for 1 h with 0.4 μM [^3H]adenine, washed, and incubated for 10 min in the presence of isobutylmethylxanthine and 10 μM forskolin. […] Incubation was ended by addition of 0.2 ml of 2.5 M HCl to the samples. Samples were applied to alumina columns (1.5 g of alumina per column), washed with 2 ml ammonium acetate (pH=7.0) and eluted from columns with 4 ml ammonium acetate and measured by liquid scintillation spectrometry. […] The incubation was stopped by addition of 0.5 ml of chloroform methanol HCl mixture (2:1:0.1). After separation of water and organic phases, 0.6 ml of water phase was applied to Dowex columns (1.5 g of Dowex per column), washed by 20 ml of 60 mM ammonium formate/5 mM sodium borate buffer and eluted from columns with 4 ml of 1M ammonium formate/0.1 formic acid buffer and measured by liquid scintillation spectrometry.
Measurements of the production of cAMP and inositol phosphates: Levels of second messengers cAMP and inositol phosphates were determined in radiochemical chromatography assays as described previously. To determine level of cAMP, cells in suspension were pre-incubated for 1 h with 0.4 μM [^3H]adenine, washed, and incubated for 10 min in the presence of isobutylmethylxanthine and 10 μM forskolin. […] Incubation was ended by addition of 0.2 ml of 2.5 M HCl to the samples. Samples were applied to alumina columns (1.5 g of alumina per column), washed with 2 ml ammonium acetate (pH=7.0) and eluted from columns with 4 ml ammonium acetate and measured by liquid scintillation spectrometry. […] For this purpose, new CHO cell lines stably expressing promiscuous G15 G-protein and M2 or M4 receptor were generated by transfection with pCMV/hygro vector and hygromycin selection. To determine the rate of formation of inositol phosphates IPX, suspended cells were pre-incubated with 0.1 μM [^3H]myo-inositol for 60 min, washed, and incubated with 10 mM LiCl for 15 min. […] The incubation was stopped by addition of 0.5 ml of chloroform methanol HCl mixture (2:1:0.1). After separation of water and organic phases, 0.6 ml of water phase was applied to Dowex columns (1.5 g of Dowex per column), washed by 20 ml of 60 mM ammonium formate/5 mM sodium borate buffer and eluted from columns with 4 ml of 1M ammonium formate/0.1 formic acid buffer and measured by liquid scintillation spectrometry.
For bi-phasic response, curves were inhibitory and stimulatory phase were fitted separately. Operational Model of Functional Agonism
[formula] where y is functional response at concentration of tested compound x, EMAX is maximal response of the system, KA is equilibrium dissociation constant and nH is slope factor. Eq. 5 was fitted to data from functional experiments. Eq. 5 was fitted to data by the two-step procedure described earlier. […] In the second step, Eq. 5 with EMAX fixed to the value determined in the first step was fitted to individual experimental data sets. Relative Intrinsic Activity
Muscarinic receptors are also able to stimulate non-preferential signalling pathways.

Question: Which results are given for `C[N+]1(Cc2cccs2)CC=CCC1.[I-]` (stereo not drawn) [Compound 7A, 1-methyl-1-[(thiophen-2-yl)methyl]-1,2,3,6-tetrahydropyridin-1-ium iodide]?
Answer: RAi: 0; accumulation of IPX: did not stimulate IPX accumulation

Question: Which “E′MAX” value does the source give for `O=C1CCCN1CC#CCN1CCCC1` [oxotremorine, reference compound] here?
Answer: The value was 4.0 ± 0.3 fold over basal.

Question: What about the τ of the same molecule?
Answer: The τ was 2.5 ± 0.2.

Question: What about the RAi of the same molecule?
Answer: The RAi was 3.50 ± 0.33.

Question: What about the “Δlog(τ/KA)” value of the same molecule?
Answer: The value was −0.54.

Question: `C1=CCN(Cc2cccs2)CC1.Cl` [Compound 6A, 1-[(thiophen-2-yl)methyl]-1,2,3,6-tetrahydropyridin-1-ium chloride] was tested. Which RAi did it give?
Answer: The RAi was 0.

Question: And the “accumulation of IPX” value?
Answer: Its value is “did not stimulate IPX accumulation”.

Question: How did the “E′MAX” value turn out when `C[N+](C)(C)CCOC(N)=O` [carbachol, reference compound] was run?
Answer: Its value is 4.5 ± 0.3 fold over basal.

Question: And the τ?
Answer: The τ was 4.8 ± 0.5.

Question: What about the “Δlog(τ/KA)” value of the same molecule?
Answer: The value was 0.

Question: What about the “accumulation of IPX” value of the same molecule?
Answer: The value was “stimulated accumulation of IPX”.
